What was measured:
MMP-2 [1] = biological target: T1, MMP-2 (Homo sapiens, UniProt P08253); assay: K(obs) of individual phage substrates (set of 1369); assay type: biochemical; conditions: MMP2
T1 sequence (P08253 110-660): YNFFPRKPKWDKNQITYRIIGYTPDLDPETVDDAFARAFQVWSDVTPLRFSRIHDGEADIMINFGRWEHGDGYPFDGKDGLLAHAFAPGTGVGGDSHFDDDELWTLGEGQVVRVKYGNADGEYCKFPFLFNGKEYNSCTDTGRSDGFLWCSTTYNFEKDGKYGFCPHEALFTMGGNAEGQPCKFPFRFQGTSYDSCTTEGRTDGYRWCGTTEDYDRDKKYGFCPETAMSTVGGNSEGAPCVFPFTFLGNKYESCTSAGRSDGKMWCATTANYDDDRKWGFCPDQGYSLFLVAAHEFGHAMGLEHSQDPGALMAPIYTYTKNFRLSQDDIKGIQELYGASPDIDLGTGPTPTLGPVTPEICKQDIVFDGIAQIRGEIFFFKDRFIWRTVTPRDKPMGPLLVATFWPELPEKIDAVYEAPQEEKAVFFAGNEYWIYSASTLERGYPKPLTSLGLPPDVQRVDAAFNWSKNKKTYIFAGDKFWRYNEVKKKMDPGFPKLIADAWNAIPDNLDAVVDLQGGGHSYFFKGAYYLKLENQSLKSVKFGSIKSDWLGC

MMP-9 = MMP-9 (Homo sapiens, UniProt P14780); assay: as above; assay type: biochemical; conditions: MMP9, individual phage substrates, set of 1369 peptides
MMP-9, sequence (P14780 94-707): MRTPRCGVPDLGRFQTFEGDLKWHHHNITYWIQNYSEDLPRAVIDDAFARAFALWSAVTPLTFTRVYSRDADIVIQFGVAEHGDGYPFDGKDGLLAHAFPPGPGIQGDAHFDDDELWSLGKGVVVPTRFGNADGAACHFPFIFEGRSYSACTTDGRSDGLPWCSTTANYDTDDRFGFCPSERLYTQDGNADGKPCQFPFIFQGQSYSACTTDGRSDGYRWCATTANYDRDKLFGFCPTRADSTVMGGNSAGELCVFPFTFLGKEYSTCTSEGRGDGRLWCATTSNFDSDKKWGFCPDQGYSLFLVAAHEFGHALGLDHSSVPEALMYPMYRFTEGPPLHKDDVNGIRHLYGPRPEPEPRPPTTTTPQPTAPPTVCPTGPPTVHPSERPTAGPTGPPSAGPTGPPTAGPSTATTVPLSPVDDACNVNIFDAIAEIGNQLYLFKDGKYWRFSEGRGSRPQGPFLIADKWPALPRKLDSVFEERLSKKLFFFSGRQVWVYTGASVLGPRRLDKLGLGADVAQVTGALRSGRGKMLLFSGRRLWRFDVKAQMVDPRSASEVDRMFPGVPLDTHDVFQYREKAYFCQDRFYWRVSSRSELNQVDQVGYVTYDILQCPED

MMP-2 [2] = assay: Substrate phage display with NGS: relative probability (RP) of P3-P1' tetramer clusters; assay type: biochemical, human; conditions: for avg_RP: MMP2 - no binning; for relative_probability: tetramer clusters unique to the MMP-2 selectome, MMP-2 RP
[3] = individual phage substrates, set of 1369 peptides, cleavage position marked by '-' in the sequence
[4] = '-' marks the cleavage position (P1-P1')
[5] = individual phage substrate from the set of 1369 peptides, cleavage position marked by the dash in the sequence
[6] = dash in sequence marks cleavage position
[7] = average relative probability (RP) of the P3-P1' tetramer, redundant tetramers have been averaged out
[8] = average relative probability of the tetramer, redundant tetramers averaged out
[9] = average relative probability of the P3-P1' tetramer, redundant tetramers have been averaged out

GGSGN-LIYWN
Kobs (MMP-2 [1]; [3]): 231.616 M⁻¹ s⁻¹
Kobs (MMP-9; [4]): 142.481 M⁻¹ s⁻¹

CCSLA-LTASG
Kobs (MMP-2 [1]; [5]): 551.253 M⁻¹ s⁻¹
Kobs (MMP-9; [6]): 386.839 M⁻¹ s⁻¹

TVLRS-LTASG
Kobs (MMP-2 [1]; [3]): 12792.1 M⁻¹ s⁻¹
Kobs (MMP-9; [4]): 3536.02 M⁻¹ s⁻¹

GKFAT-LVTAS
Kobs (MMP-2 [1]; [5]): 56.119 M⁻¹ s⁻¹
Kobs (MMP-9; [6]): 0 M⁻¹ s⁻¹

ERIWA-LTASG
Kobs (MMP-2 [1]; [5]): 1465.65 M⁻¹ s⁻¹
Kobs (MMP-9; [6]): 3344.37 M⁻¹ s⁻¹

GGSGR-LVVRL
Kobs (MMP-2 [1]; [3]): 113.394 M⁻¹ s⁻¹
Kobs (MMP-9; [4]): 0 M⁻¹ s⁻¹

GTPLG-QITAS
Kobs (MMP-2 [1]; [3]): 12792.1 M⁻¹ s⁻¹
Kobs (MMP-9; [4]): 5461.43 M⁻¹ s⁻¹

WNSLN-LTASG
Kobs (MMP-2 [1]; [5]): 484.315 M⁻¹ s⁻¹
Kobs (MMP-9; [6]): 451.441 M⁻¹ s⁻¹

RVPKL-LTASG
Kobs (MMP-2 [1]; [5]): 1870.4 M⁻¹ s⁻¹
Kobs (MMP-9; [6]): 4922.1 M⁻¹ s⁻¹

SGALA-LLDTA
Kobs (MMP-2 [1]; [3]): 0 M⁻¹ s⁻¹
Kobs (MMP-9; [4]): 619.843 M⁻¹ s⁻¹

GPAGH-LSTAS
Kobs (MMP-2 [1]; [5]): 5889.62 M⁻¹ s⁻¹
Kobs (MMP-9; [6]): 951.362 M⁻¹ s⁻¹

GSGQG-LRMGT
Kobs (MMP-2 [1]; [5]): 0 M⁻¹ s⁻¹
Kobs (MMP-9; [6]): 0 M⁻¹ s⁻¹

GGSGA-LHRPG
Kobs (MMP-2 [1]; [5]): 1071.29 M⁻¹ s⁻¹
Kobs (MMP-9; [6]): 0 M⁻¹ s⁻¹

SGYLP-LLYTA
Kobs (MMP-2 [1]; [3]): 1196.62 M⁻¹ s⁻¹
Kobs (MMP-9; [4]): 12792.1 M⁻¹ s⁻¹

RSPLM-MTASG
Kobs (MMP-2 [1]; [3]): 4922.1 M⁻¹ s⁻¹
Kobs (MMP-9; [4]): 12792.1 M⁻¹ s⁻¹

ARVGV-LTASG
Kobs (MMP-2 [1]; [5]): 84.609 M⁻¹ s⁻¹
Kobs (MMP-9; [6]): 0 M⁻¹ s⁻¹

SGAWN-MRVTA
Kobs (MMP-2 [1]; [3]): 292.668 M⁻¹ s⁻¹
Kobs (MMP-9; [4]): 3079.62 M⁻¹ s⁻¹

SGPMG-MRNTA
Kobs (MMP-2 [1]; [3]): 5667.28 M⁻¹ s⁻¹
Kobs (MMP-9; [4]): 5889.62 M⁻¹ s⁻¹

TRPQH-LTASG
Kobs (MMP-2 [1]; [3]): 10866.7 M⁻¹ s⁻¹
Kobs (MMP-9; [4]): 7815.03 M⁻¹ s⁻¹

SGYMH-IKVTA
Kobs (MMP-2 [1]; [3]): 0 M⁻¹ s⁻¹
Kobs (MMP-9; [4]): 0 M⁻¹ s⁻¹

TAVRS-LTASG
Kobs (MMP-2 [1]; [5]): 12792.1 M⁻¹ s⁻¹
Kobs (MMP-9; [6]): 5889.62 M⁻¹ s⁻¹

SGPMA-LKSTA
Kobs (MMP-2 [1]; [5]): 8941.32 M⁻¹ s⁻¹
Kobs (MMP-9; [6]): 8321.48 M⁻¹ s⁻¹

NDLAH-ITASG
Kobs (MMP-2 [1]; [5]): 10866.7 M⁻¹ s⁻¹
Kobs (MMP-9; [6]): 0 M⁻¹ s⁻¹

GGSGA-LREKV
Kobs (MMP-2 [1]; [5]): 201.585 M⁻¹ s⁻¹
Kobs (MMP-9; [6]): 292.668 M⁻¹ s⁻¹

WLYAH-YTASG
Kobs (MMP-2 [1]; [5]): 1816.46 M⁻¹ s⁻¹
Kobs (MMP-9; [6]): 113.394 M⁻¹ s⁻¹

GAPAF-LKTAS
Kobs (MMP-2 [1]; [3]): 12792.1 M⁻¹ s⁻¹
Kobs (MMP-9; [4]): 10866.7 M⁻¹ s⁻¹

GISMY-LTASG
Kobs (MMP-2 [1]; [3]): 690.17 M⁻¹ s⁻¹
Kobs (MMP-9; [4]): 0 M⁻¹ s⁻¹

SGVMK-LQKTA
Kobs (MMP-2 [1]; [5]): 0 M⁻¹ s⁻¹
Kobs (MMP-9; [6]): 0 M⁻¹ s⁻¹

SGPMS-LLDTA
Kobs (MMP-2 [1]; [5]): 2996.69 M⁻¹ s⁻¹
Kobs (MMP-9; [6]): 8941.32 M⁻¹ s⁻¹

LFHL
avg_RP (MMP-2 [2]; [7]): 2.7376

LGNM [P3-P1' tetramer cluster]
relative_probability (MMP-2 [2]): 29.28

VEAL
avg_RP (MMP-2 [2]; [8]): 10.756

YLPL
avg_RP (MMP-2 [2]; [7]): 2.3089

YASM
avg_RP (MMP-2 [2]; [9]): 24.1553

SYPL
avg_RP (MMP-2 [2]; [7]): 1.464

AYNM
avg_RP (MMP-2 [2]; [9]): 10.8408

ANYI
avg_RP (MMP-2 [2]; [7]): 1.6587

VWGL
avg_RP (MMP-2 [2]; [7]): 12.3495

PQWM
avg_RP (MMP-2 [2]; [8]): 29.0885

PVNL
avg_RP (MMP-2 [2]; [8]): 34.508

PIGI
avg_RP (MMP-2 [2]; [8]): 31.281

QLSL
avg_RP (MMP-2 [2]; [8]): 0.4979

YAWM
avg_RP (MMP-2 [2]; [7]): 14.9473

VRGM
avg_RP (MMP-2 [2]; [8]): 26.4376

PKWI
avg_RP (MMP-2 [2]; [8]): 22.5059

AWGL
avg_RP (MMP-2 [2]; [9]): 17.7408

WHNM
avg_RP (MMP-2 [2]; [9]): 0

YFNL
avg_RP (MMP-2 [2]; [9]): 0

VMYL
avg_RP (MMP-2 [2]; [7]): 5.0318

PNRL
avg_RP (MMP-2 [2]; [7]): 14.3701

PFSN
avg_RP (MMP-2 [2]; [8]): 0.4602

MGAL [P3-P1' tetramer cluster]
relative_probability (MMP-2 [2]): 31.51

PMNV
avg_RP (MMP-2 [2]; [8]): 12.9651

VRDL
avg_RP (MMP-2 [2]; [8]): 21.7219

IESM
avg_RP (MMP-2 [2]; [9]): 2.7483

VEPL
avg_RP (MMP-2 [2]; [7]): 2.5219

IHFL
avg_RP (MMP-2 [2]; [9]): 4.5373

ADLI
avg_RP (MMP-2 [2]; [7]): 0.5875

VMNY
avg_RP (MMP-2 [2]; [8]): 12.7895

VWRL
avg_RP (MMP-2 [2]; [7]): 0.9525

PEFL
avg_RP (MMP-2 [2]; [8]): 12.0159

PQRM
avg_RP (MMP-2 [2]; [8]): 19.3209

VWNI
avg_RP (MMP-2 [2]; [9]): 4.0144

WLPI
avg_RP (MMP-2 [2]; [9]): 0.6666

YAYI
avg_RP (MMP-2 [2]; [9]): 1.7086

YAHL
avg_RP (MMP-2 [2]; [8]): 18.7061

PRQV
avg_RP (MMP-2 [2]; [8]): 4.0665

VQHL
avg_RP (MMP-2 [2]; [8]): 22.9738

LRHL
avg_RP (MMP-2 [2]; [9]): 22.7972

IYNL
avg_RP (MMP-2 [2]; [9]): 11.935

PLSI
avg_RP (MMP-2 [2]; [7]): 32.2576

FSQL
avg_RP (MMP-2 [2]; [9]): 9.0646

FGAL
avg_RP (MMP-2 [2]; [8]): 25.0961

PGKM
avg_RP (MMP-2 [2]; [8]): 18.9001

FQSL
avg_RP (MMP-2 [2]; [9]): 13.5551

LDLL
avg_RP (MMP-2 [2]; [9]): 0.0715

AFSL
avg_RP (MMP-2 [2]; [7]): 10.3321

PLSY
avg_RP (MMP-2 [2]; [8]): 31.2477

YRSM
avg_RP (MMP-2 [2]; [7]): 5.2577

QLAM
avg_RP (MMP-2 [2]; [9]): 5.2406

VRNW
avg_RP (MMP-2 [2]; [9]): 17.7682

PRVL
avg_RP (MMP-2 [2]; [8]): 13.9079

PVHM
avg_RP (MMP-2 [2]; [8]): 25.8779

ALGI
avg_RP (MMP-2 [2]; [8]): 18.2164

LANL
avg_RP (MMP-2 [2]; [9]): 34.4823

PAPM
avg_RP (MMP-2 [2]; [8]): 30.2085

VFWY
avg_RP (MMP-2 [2]; [8]): 6.3003

VGML
avg_RP (MMP-2 [2]; [9]): 28.5913

SGAY
avg_RP (MMP-2 [2]; [7]): 6.7841

GMRL
avg_RP (MMP-2 [2]; [9]): 0

TYAL
avg_RP (MMP-2 [2]; [9]): 5.848

VANW [P3-P1' tetramer cluster]
relative_probability (MMP-2 [2]): 29.92

Reference: PMC7932537, “Quantitative profiling of protease specificity” (PLoS Computational Biology, 2021)
